Laboratory results reported in ChEMBL document CHEMBL5291721, “A preclinical secondary pharmacology resource illuminates target-adverse drug reaction associations of marketed drugs” (Nat Commun, 2023).

Key:
D(1A) dopamine receptor [1] = molecular target: T1, D(1A) dopamine receptor (Homo sapiens, UniProt P21728); format: functional, cell-based
Histamine H2 receptor = Histamine H2 receptor (Homo sapiens, UniProt P25021); format: functional, cell-based
[2] = molecular target: Beta-1 adrenergic receptor (Homo sapiens, UniProt P08588); format: functional
[3] = molecular target: T2, Gamma-aminobutyric acid receptor subunit alpha-1 (Rattus norvegicus, UniProt P62813)
[4] = molecular target: Neuronal acetylcholine receptor subunit alpha-4 (Homo sapiens, UniProt P43681)
[5] = molecular target: T3, Muscarinic acetylcholine receptor M1 (Homo sapiens, UniProt P11229); format: functional
T3 sequence (P11229 whole entry): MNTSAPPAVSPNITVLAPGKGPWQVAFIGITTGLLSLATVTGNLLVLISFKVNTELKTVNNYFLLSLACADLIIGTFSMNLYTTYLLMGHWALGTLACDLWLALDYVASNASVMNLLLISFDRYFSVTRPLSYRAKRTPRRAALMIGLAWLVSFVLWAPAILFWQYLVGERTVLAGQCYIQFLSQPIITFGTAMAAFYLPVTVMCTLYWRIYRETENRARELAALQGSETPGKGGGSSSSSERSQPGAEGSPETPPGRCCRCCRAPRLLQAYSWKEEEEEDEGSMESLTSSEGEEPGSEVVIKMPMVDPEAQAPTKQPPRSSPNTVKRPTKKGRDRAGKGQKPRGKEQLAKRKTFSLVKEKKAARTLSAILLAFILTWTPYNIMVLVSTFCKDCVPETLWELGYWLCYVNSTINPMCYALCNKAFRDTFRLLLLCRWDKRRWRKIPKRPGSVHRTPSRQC

[6] = molecular target: 5-hydroxytryptamine receptor 2B (Homo sapiens, UniProt P41595); format: functional, cell-based
[7] = molecular target: T2, Gamma-aminobutyric acid receptor subunit alpha-1; format: functional
[8] = molecular target: T4, Alpha-1A adrenergic receptor (Homo sapiens, UniProt P35348); format: functional, cell-based
T4 sequence (P35348 whole entry): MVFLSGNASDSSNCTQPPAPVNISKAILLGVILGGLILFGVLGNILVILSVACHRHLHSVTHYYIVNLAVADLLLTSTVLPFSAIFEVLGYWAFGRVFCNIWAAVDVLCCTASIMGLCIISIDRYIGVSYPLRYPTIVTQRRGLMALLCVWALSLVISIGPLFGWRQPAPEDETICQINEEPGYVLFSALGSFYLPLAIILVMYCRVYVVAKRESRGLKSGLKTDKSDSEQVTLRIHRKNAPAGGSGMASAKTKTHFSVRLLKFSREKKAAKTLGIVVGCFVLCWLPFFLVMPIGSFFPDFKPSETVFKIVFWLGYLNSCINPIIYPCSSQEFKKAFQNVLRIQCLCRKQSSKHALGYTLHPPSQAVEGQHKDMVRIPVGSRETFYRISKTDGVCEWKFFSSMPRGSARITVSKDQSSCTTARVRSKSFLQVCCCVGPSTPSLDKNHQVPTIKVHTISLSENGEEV

[9] = molecular target: cGMP-inhibited 3',5'-cyclic phosphodiesterase 3A (Homo sapiens, UniProt Q14432); format: functional
[10] = molecular target: Sodium-dependent dopamine transporter (Homo sapiens, UniProt Q01959)
Thromboxane A2 receptor = molecular target: T5, Thromboxane A2 receptor (Homo sapiens, UniProt P21731); format: functional, cell-based
T5 sequence (P21731 whole entry): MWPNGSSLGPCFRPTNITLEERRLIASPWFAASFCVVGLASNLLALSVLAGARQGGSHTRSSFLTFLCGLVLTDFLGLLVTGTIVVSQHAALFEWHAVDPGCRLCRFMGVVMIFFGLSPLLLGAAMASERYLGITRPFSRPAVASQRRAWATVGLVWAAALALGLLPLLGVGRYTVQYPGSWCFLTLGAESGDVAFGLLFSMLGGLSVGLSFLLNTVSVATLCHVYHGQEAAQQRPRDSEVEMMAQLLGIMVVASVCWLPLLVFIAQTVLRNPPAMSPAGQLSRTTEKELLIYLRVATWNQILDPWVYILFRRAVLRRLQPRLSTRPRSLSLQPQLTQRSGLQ

[11] = molecular target: Voltage-gated inwardly rectifying potassium channel KCNH2 (Homo sapiens, UniProt Q12809); format: functional; conditions: read-out: AC50
Progesterone receptor = molecular target: T6, Progesterone receptor (Homo sapiens, UniProt P06401)
T6 sequence (P06401 whole entry): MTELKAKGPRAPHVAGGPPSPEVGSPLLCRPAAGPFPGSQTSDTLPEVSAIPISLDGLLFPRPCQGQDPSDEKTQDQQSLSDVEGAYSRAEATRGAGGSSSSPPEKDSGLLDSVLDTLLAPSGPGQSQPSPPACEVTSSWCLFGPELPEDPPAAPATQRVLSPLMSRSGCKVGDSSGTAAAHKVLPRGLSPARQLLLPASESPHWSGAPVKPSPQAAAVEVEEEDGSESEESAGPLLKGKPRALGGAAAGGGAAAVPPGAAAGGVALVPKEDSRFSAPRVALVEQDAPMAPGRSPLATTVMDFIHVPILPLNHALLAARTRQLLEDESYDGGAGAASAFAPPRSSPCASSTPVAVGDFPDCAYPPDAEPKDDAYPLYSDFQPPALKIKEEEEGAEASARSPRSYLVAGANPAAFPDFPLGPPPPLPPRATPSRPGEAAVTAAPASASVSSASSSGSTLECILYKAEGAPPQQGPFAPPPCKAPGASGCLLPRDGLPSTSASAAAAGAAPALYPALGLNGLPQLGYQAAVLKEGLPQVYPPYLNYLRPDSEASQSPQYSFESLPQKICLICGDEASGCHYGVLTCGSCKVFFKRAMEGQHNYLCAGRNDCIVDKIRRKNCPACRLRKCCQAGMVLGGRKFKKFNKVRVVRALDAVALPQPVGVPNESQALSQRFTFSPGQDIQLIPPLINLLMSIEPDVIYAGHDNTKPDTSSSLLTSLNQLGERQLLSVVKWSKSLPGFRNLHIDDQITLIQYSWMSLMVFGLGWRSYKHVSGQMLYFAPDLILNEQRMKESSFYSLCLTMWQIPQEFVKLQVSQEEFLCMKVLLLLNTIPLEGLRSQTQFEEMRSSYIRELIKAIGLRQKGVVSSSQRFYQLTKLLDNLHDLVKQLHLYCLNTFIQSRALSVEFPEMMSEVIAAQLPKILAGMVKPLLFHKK

D(1A) dopamine receptor [12] = molecular target: T1, D(1A) dopamine receptor
[13] = molecular target: Prostaglandin G/H synthase 1 (Homo sapiens, UniProt P23219); format: functional

Measured: AC50
Note: assay procedure not described here.

T2 sequence (P62813 whole entry): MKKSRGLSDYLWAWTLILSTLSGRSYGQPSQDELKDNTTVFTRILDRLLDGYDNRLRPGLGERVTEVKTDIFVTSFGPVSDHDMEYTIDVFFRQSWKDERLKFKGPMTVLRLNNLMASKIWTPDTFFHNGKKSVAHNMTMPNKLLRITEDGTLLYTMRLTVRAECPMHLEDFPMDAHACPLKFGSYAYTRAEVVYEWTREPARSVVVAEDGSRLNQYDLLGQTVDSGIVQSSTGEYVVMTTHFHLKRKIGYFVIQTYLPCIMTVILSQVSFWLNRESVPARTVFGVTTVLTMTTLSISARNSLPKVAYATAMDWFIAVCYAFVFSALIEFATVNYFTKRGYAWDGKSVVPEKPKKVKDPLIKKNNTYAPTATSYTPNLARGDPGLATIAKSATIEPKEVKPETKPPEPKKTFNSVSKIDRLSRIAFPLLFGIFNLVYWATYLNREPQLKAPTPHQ
T1 sequence (P21728 whole entry): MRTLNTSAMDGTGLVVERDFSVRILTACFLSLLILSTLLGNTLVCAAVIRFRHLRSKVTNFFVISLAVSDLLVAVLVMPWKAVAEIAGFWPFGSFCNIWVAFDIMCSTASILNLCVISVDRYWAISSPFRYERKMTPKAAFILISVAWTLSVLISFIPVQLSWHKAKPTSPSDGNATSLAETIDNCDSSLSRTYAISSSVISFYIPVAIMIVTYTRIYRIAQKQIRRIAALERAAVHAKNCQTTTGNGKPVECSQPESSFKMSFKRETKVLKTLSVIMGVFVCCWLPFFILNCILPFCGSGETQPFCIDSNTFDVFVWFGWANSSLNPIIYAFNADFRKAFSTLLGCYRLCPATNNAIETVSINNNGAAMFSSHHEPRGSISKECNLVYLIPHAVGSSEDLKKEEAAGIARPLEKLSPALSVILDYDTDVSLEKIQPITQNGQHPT
Sequence of Prostaglandin G/H synthase 1 (P23219 whole entry): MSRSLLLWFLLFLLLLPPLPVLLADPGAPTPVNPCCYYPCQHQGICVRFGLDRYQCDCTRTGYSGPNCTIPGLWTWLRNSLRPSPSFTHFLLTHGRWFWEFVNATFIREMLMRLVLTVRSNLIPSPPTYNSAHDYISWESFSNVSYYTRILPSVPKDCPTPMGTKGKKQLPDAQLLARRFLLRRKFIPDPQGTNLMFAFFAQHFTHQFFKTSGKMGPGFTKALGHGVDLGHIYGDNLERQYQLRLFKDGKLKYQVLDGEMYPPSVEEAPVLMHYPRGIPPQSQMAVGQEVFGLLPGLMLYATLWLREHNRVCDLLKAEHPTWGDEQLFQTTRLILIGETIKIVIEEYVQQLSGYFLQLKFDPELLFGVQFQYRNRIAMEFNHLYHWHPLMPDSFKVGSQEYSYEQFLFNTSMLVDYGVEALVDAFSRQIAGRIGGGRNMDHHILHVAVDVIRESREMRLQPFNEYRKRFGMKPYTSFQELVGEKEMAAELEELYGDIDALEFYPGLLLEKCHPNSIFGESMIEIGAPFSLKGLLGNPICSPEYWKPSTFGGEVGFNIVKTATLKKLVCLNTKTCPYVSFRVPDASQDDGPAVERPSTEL
Sequence of Beta-1 adrenergic receptor (P08588 whole entry): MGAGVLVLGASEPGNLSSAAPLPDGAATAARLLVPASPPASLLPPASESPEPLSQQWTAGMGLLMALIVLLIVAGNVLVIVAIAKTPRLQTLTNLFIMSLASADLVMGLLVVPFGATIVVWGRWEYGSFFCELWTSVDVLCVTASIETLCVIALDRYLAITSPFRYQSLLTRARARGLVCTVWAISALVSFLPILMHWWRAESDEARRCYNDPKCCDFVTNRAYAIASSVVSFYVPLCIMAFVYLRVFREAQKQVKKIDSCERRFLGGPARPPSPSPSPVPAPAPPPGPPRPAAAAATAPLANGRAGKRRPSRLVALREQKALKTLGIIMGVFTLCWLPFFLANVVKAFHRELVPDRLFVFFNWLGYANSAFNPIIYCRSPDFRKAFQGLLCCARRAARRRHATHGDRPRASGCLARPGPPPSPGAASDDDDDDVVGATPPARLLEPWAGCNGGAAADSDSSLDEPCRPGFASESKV
Sequence of Histamine H2 receptor (P25021 whole entry): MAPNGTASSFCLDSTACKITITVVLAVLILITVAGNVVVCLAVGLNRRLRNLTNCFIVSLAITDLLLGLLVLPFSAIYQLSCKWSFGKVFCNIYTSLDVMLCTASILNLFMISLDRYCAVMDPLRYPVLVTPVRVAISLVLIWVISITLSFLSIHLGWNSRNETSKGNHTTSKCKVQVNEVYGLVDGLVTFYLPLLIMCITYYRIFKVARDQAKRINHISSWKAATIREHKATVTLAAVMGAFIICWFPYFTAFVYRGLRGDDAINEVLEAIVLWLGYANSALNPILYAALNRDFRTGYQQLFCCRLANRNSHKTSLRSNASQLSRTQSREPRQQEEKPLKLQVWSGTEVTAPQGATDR
Sequence of Voltage-gated inwardly rectifying potassium channel KCNH2 (Q12809 whole entry): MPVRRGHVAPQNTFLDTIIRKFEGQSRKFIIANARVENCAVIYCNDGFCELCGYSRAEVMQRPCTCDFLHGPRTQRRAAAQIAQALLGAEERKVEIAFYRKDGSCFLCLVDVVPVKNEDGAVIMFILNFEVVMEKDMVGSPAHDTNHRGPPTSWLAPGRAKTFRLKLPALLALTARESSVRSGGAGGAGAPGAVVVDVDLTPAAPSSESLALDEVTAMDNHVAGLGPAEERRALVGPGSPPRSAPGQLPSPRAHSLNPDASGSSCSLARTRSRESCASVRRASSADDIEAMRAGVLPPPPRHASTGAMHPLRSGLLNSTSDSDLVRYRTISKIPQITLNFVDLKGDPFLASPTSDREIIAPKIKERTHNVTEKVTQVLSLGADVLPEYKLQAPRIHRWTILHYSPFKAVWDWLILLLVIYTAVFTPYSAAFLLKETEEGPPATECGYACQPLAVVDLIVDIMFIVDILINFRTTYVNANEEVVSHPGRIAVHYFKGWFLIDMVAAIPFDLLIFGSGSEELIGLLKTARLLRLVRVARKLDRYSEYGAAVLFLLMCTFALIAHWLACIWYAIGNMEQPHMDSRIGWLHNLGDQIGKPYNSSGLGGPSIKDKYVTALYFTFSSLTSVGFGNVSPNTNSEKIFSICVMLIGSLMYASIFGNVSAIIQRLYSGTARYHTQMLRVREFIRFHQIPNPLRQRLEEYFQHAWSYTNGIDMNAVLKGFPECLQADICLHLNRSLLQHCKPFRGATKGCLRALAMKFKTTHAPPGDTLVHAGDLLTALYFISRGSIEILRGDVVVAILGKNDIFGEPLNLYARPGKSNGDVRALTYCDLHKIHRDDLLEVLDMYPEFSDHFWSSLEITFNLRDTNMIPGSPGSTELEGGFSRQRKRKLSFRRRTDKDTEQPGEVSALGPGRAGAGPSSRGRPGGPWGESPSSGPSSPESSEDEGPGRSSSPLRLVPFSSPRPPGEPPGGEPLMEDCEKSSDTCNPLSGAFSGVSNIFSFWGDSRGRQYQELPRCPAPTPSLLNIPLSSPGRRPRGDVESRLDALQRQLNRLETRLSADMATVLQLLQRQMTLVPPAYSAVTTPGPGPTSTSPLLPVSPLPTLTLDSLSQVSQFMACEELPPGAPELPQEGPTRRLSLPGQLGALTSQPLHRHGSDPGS
Sequence of Neuronal acetylcholine receptor subunit alpha-4 (P43681 whole entry): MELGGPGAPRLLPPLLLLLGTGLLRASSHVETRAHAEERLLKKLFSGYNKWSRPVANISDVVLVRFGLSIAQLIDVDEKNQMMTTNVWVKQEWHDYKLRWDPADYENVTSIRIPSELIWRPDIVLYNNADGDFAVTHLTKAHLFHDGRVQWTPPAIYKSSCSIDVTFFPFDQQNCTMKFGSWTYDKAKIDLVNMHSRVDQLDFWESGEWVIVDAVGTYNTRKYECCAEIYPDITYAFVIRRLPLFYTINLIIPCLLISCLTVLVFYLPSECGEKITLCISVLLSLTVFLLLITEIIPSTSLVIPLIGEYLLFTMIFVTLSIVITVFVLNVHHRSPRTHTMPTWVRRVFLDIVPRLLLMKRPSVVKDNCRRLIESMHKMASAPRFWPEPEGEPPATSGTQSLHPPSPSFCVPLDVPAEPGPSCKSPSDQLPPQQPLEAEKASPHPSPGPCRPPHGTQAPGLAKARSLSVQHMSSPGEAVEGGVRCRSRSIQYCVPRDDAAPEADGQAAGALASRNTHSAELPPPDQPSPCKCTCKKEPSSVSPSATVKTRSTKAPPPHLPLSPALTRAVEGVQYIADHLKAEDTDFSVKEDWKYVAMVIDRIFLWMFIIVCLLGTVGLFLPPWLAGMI
Sequence of Sodium-dependent dopamine transporter (Q01959 whole entry): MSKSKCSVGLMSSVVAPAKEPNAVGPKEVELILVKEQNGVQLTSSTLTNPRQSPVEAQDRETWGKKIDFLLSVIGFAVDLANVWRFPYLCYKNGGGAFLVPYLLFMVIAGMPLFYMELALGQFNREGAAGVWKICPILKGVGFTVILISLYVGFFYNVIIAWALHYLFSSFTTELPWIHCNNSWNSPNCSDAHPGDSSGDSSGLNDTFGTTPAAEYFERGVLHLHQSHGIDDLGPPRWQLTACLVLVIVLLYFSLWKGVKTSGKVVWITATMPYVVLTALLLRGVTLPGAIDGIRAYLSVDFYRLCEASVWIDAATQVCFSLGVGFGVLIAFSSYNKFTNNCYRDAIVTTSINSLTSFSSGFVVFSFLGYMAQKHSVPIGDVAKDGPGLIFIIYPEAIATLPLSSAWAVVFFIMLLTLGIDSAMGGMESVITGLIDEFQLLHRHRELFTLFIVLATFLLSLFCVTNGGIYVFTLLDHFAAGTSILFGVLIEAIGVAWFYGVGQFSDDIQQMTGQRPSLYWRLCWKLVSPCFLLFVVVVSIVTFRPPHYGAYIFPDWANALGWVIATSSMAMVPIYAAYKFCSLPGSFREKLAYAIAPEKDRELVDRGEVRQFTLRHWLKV

CCN(CC)C(=O)C1(c2ccccc2)CC1CN (stereo unspecified)
> 30 µM: D(1A) dopamine receptor [1] | Histamine H2 receptor | [2] | [3] | [4] | [5] | [6] | [7] | [8]

CN(C)C(=O)Oc1cccc([N+](C)(C)C)c1 [NEOSTIGMINE]
> 30 µM: [9] | [10] | Thromboxane A2 receptor | [11] | Progesterone receptor | D(1A) dopamine receptor [12] | [13]
